Reference: patent US20250270172A1, “Pyrimidine Derivatives As Modulators of the 5-HT2A Serotonin Receptor Useful For The Treatment of Disorders Related Thereto” (Arena Pharmaceuticals, Inc., priority 2020, published 2025)
pIC50, pKi: −log10 of the molar value. “And” between values parts separate entries of the source, which are not always exact repeats. Identical values can stand only once.

Key:
5-HT2B = 5-HT2B (Homo sapiens (Human), UniProt P41595); test: HTRF IP-One antagonist assay, 5-HT2B; format: cell-based; details: HEK293 cells stably expressing receptor, inositol phosphate accumulation, 80 nM 5-HT in Assay Buffer;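 further: clonal HEK293 line with low 5-HT2B expression (estimated 150-200 fmol/mg by radioligand binding), IP-One HTRF readout, 10-point curves from 10 µM in 5-fold steps, triplicate points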
Chain of 5-HT2B (P41595 whole entry): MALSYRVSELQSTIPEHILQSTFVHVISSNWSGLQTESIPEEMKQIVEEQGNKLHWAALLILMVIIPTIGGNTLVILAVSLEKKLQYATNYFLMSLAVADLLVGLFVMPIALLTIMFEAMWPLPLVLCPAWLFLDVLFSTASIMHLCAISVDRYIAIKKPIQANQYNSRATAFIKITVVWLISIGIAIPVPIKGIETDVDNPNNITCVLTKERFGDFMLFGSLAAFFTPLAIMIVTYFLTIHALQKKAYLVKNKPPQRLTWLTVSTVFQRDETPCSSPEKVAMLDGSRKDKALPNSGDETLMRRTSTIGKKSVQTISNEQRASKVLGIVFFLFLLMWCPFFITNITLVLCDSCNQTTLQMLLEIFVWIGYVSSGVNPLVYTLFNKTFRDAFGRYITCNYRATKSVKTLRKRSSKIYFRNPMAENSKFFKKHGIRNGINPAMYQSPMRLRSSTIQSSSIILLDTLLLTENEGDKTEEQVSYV

5-HT2A [1] = biological target: T1, 5-HT2A (Homo sapiens (Human), UniProt P28223); test: HTRF IP-One antagonist assay, 5-HT2A; format: cell-based; details: HEK293 cells stably expressing receptor, inositol phosphate accumulation, 80 nM 5-HT in Assay Buffer;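 further: clonal line with low receptor density (about 50–70 fmol/mg), 10-point dose-response from 10 µM in 5-fold steps, HTRF detection after 1 hr, triplicate points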
T1 sequence (P28223 whole entry): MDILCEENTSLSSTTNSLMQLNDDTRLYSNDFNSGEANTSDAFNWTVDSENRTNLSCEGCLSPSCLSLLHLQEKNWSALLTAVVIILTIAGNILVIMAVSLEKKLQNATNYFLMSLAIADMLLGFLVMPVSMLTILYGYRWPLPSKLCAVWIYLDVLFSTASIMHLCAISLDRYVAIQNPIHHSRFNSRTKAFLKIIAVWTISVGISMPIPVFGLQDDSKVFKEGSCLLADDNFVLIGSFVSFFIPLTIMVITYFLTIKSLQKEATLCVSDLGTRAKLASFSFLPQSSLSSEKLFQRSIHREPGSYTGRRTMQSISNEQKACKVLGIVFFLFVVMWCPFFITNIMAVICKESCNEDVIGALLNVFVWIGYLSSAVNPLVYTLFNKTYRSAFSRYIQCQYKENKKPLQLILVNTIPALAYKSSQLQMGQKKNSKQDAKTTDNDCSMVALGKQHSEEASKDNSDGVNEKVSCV

5-HT2A [2] = biological target: T1, 5-HT2A; test: Radioligand binding assay, [^3H]5-HT competition, 5-HT2A; details: [^3H]5-HT radioligand, membranes of HEK293 cells expressing recombinant 5-HT2A; Ki from IC50 by Cheng-Prusoff; read-out: 5-HT2A serotonin binding Ki value
5-HT2C = 5-HT2C (Homo sapiens (Human), UniProt P28335); test: HTRF IP-One antagonist assay, 5-HT2C; format: cell-based; details: HEK293 cells stably expressing receptor, inositol phosphate accumulation, 80 nM 5-HT in Assay Buffer;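 further: clonal HEK293 line with low 5-HT2C density (10–20 fmol/mg), HTRF detection of IP-One, 10-point dose curves from 10 µM in 5-fold steps, triplicate points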
Chain of 5-HT2C (P28335 33-458): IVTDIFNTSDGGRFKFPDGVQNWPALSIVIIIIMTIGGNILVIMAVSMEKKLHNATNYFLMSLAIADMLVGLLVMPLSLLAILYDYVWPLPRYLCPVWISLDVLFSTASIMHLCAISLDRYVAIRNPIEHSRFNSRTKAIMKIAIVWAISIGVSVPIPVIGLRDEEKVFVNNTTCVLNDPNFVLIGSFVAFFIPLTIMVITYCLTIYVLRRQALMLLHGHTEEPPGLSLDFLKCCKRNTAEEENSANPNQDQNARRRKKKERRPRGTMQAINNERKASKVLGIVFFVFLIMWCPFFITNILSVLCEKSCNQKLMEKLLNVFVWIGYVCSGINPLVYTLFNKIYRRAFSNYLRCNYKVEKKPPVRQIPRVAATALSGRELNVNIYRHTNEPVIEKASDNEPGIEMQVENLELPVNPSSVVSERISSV

SMILES | pIC50 (5-HT2B) | pIC50 (5-HT2A [1]) | pKi (5-HT2A [2]) | pIC50 (5-HT2C)
Cc1ncnc(C)c1-c1cc(NC(=O)C2(F)CCC2)ccc1OC[C@H]1CCCCN1 [Compound 444, (R)—N-(3-(4,6-dimethylpyrimidin-5-yl)-4-(piperidin-2-ylmethoxy)phenyl)-1-fluorocyclobutane-1-carboxamide] | 4.00 | 7.93 | 8.31 | 4.00
CCOC1CC1C(=O)Nc1ccc(OC[C@H]2CCCCN2)c(-c2c(C)ncnc2C)c1 (stereo partly drawn) [Compound 447, N-(3-(4,6-dimethylpyrimidin-5-yl)-4-(((R)-piperidin-2-yl)methoxy)phenyl)-2-ethoxycyclopropane-1-carboxamide] | 4.00 | 8.04 | 8.15 and 7.71 | 4.00
COCCNCCOc1ccc(NC(=O)C2(F)CC2)cc1-c1c(C)ncnc1C [Compound 453, N-(3-(4,6-dimethylpyrimidin-5-yl)-4-(2-((2-methoxyethyl)amino)ethoxy)phenyl)-1-fluorocyclopropane-1-carboxamide] | 4.00 | 8.32 | 8.32 | 4.00
